Patent publication US20240174679A1, “HETEROAROYL AMIDES AS LRRK2 INHIBITORS, PHARMACEUTICAL COMPOSITIONS, AND USES THEREOF” (MERCK SHARP & DOHME LLC, priority 2021, published 2024)

These molecules were tested against GST tagged truncated human mutant G2019S LRRK2 (Homo sapiens (Human), UniProt Q5S007, G2019S) (assay: LRRK2 Km ATP LanthaScreen Assay). Details: 134 μM ATP (Km ATP), LRRKtide substrate, negative log of mean IC50 (molar).
Assay type: biochemical
Summary of the method: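 Truncated GST-tagged G2019S LRRK2 (1.25 nM enzyme solution) was preincubated with compound for 15 min at rt, then reacted for 90 min with fluorescein-LRRKtide and 134 μM ATP (Km) in Tris pH 8.5/MgCl2 buffer. After an EDTA stop, TR-FRET used a Tb anti-pERM antibody (520/495 nm ratio). IC50 came from a 4-parameter fit and is reported as pIC50, mean of several runs.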

Chain of GST tagged truncated human mutant G2019S LRRK2 (Q5S007 970-2527 G2019S): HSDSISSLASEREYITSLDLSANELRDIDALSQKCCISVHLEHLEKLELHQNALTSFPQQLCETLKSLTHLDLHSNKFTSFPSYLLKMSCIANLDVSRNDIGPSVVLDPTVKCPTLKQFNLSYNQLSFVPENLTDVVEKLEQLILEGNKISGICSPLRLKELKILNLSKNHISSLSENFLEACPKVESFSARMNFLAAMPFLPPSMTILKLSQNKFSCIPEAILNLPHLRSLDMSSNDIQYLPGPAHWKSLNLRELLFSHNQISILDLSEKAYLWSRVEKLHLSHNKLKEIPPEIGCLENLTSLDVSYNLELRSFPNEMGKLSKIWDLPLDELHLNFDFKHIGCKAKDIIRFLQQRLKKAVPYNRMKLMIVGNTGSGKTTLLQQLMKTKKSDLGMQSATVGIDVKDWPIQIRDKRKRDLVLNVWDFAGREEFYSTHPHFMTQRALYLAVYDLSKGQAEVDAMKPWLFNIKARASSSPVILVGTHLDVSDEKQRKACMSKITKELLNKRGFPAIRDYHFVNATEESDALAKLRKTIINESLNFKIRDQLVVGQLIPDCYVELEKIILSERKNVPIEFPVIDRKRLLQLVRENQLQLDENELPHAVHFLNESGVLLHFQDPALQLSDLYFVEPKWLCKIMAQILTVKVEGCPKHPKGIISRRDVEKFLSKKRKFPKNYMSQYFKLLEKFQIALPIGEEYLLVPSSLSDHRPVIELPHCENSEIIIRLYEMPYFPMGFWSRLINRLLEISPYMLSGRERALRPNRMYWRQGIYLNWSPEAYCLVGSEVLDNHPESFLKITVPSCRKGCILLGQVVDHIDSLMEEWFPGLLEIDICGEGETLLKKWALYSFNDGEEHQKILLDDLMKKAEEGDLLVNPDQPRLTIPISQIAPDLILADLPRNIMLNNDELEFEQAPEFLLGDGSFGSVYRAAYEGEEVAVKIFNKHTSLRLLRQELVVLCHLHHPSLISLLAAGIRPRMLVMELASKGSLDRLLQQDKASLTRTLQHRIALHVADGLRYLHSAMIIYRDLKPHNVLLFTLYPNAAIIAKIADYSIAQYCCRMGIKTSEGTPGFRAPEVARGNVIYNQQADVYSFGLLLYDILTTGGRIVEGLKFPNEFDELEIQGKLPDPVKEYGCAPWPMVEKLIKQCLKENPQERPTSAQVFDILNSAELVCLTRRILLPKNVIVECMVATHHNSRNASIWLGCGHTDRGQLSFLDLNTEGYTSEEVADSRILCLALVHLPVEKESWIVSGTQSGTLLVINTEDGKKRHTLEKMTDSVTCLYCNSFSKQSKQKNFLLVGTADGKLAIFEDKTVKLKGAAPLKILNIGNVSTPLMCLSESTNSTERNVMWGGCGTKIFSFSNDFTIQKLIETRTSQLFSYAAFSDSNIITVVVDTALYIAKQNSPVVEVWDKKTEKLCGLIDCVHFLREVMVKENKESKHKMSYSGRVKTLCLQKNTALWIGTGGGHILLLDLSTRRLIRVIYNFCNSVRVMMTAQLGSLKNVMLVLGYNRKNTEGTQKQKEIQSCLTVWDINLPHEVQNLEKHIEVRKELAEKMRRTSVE

Compared with `Cc1cc(-n2cc(NC(=O)c3csc(-c4cn[nH]c4)n3)cn2)ccn1` [Example 8-1, N-(1-(2-Methylpyridin-4-yl)-1H-pyrazol-4-yl)-2-(1H-pyrazol-4-yl)thiazole-4-carboxamide], `Cn1cc(NC(=O)c2csc(-c3cn[nH]c3)n2)c(CO)n1` [Example 6-1, N-(3-(Hydroxymethyl)-1-methyl-1H-pyrazol-4-yl)-2-(1H-pyrazol-4-yl)thiazole-4-carboxamide] is lower in “LRRK2 pIC50” value: 7.90 for the first, 7.47 for the second.

First: CC(C1CC1)n1ncc(NC(=O)c2csc(-c3cn[nH]c3)n2)c1C(F)F (single isomer, unassigned) [Example 3-5, (S)- or (R)—N-(1-(1-cyclopropylethyl)-5-(difluoromethyl)-1H-pyrazol-4-yl)-2-(1H-pyrazol-4-yl)thiazole-4-carboxamide]
Second: CC(C)n1cc(NC(=O)c2csc(-c3cn[nH]c3)n2)c(OCC(F)F)n1 [Example 1-46, N-[3-(2,2-difluoroethoxy)-1-(1-methylethyl)-1H-pyrazol-4-yl]-2-(1H-pyrazol-4-yl)-1,3-thiazole-4-carboxamide]
The “LRRK2 pIC50” value of the first is lower: 5.92 for the first, 7.57 for the second.

`O=C(Nc1cnn(Cc2ccc(F)cc2)c1)c1coc(-c2cn[nH]c2)n1` [Example 1-45, N-[1-(4-fluorobenzyl)-1H-pyrazol-4-yl]-2-(1H-pyrazol-4-yl)-1,3-oxazole-4-carboxamide] and `O=C(Nc1cnn(CC2CCC2)c1)c1cccc(-c2cnn(Cc3cccnc3)c2)n1` [Example 9-36, N-[1-(cyclobutylmethyl)-1H-pyrazol-4-yl]-6-[1-(pyridin-3-ylmethyl)-1H-pyrazol-4-yl]pyridine-2-carboxamide] are within 0.2 log units of each other in “LRRK2 pIC50” value: 6.77 for the first, 6.90 for the second.

First: CC(C)Oc1cccc(C(=O)Nc2cnn(C3CCC3)c2)n1 [Example 4-6, N-(1-cyclobutyl-1H-pyrazol-4-yl)-6-(1-methylethoxy) pyridine-2-carboxamide]
Second: O=C(Nc1cnn(C2CCC2)c1)c1cccc(-n2cccn2)n1 [Example 4-13, N-(1-cyclobutyl-1H-pyrazol-4-yl)-6-(1H-pyrazol-1-yl)pyridine-2-carboxamide]
The “LRRK2 pIC50” value of the first is higher: 7.10 for the first, 6.76 for the second.

First: O=C(Nc1cnn(C2CCC2)c1)c1csc(-c2cc[nH]n2)n1 [Example 9-14, N-(1-cyclobutyl-1H-pyrazol-4-yl)-2-(1H-pyrazol-3-yl)-1,3-thiazole-4-carboxamide]
Second: Cn1cc(-c2nc(C(=O)Nc3cn(C4CC4)nc3C3CC3)cs2)cn1 [Example 12-3, N-(1,3-dicyclopropyl-1H-pyrazol-4-yl)-2-(1-methyl-1H-pyrazol-4-yl)-1,3-thiazole-4-carboxamide]
The “LRRK2 pIC50” value of the first is lower: 7.41 for the first, 7.84 for the second.

Going from `O=C(Nc1cnn(CC2CCC2)c1)c1cccc(-c2ccnnc2)n1` [Example 9-19, N-[1-(cyclobutylmethyl)-1H-pyrazol-4-yl]-6-pyridazin-4-ylpyridine-2-carboxamide] to `COc1ccncc1-c1cccc(C(=O)Nc2cnn(CC3CCC3)c2)n1` [Example 9-30, N-[1-(cyclobutylmethyl)-1H-pyrazol-4-yl]-4′-methoxy-2,3′-bipyridine-6-carboxamide], the “LRRK2 pIC50” value rises from 5.22 to 6.76.

`COc1nn(CC2(C#N)CC2)cc1NC(=O)c1csc(-c2cn[nH]c2)n1` [Example 7-25, N-{1-[(1-cyanocyclopropyl)methyl]-3-methoxy-1H-pyrazol-4-yl}-2-(1H-pyrazol-4-yl)-1,3-thiazole-4-carboxamide] and `O=C(Nc1cn(CC2CCOCC2)nc1C(F)F)c1csc(-c2cn[nH]c2)n1` [Example 7-7, N-[3-(difluoromethyl)-1-(tetrahydro-2H-pyran-4-ylmethyl)-1H-pyrazol-4-yl]-2-(1H-pyrazol-4-yl)-1,3-thiazole-4-carboxamide] are within 0.2 log units of each other in “LRRK2 pIC50” value: 7.70 for the first, 7.72 for the second.

Same assay, conditions: 134 μM ATP (Km ATP), LRRKtide substrate, negative log of mean IC50 (molar), read-out: LRRK2 pIC50 (converted)

`CC(C1CC1)n1cc(NC(=O)c2csc(-c3cn[nH]c3)n2)cn1` (single isomer, unassigned) [Example 2-1, (R)- or (S)—N-(1-(1-cyclopropylethyl)-1H-pyrazol-4-yl)-2-(1H-pyrazol-4-yl)thiazole-4-carboxamide] was tested, and the IC50 was 32.4 nM.
